# Reference: ChEMBL document CHEMBL1201862, “PubChem BioAssay data set” (2004)
#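 The compound was tested at five concentrations on cells cultured in 96-well plates, with a 48-hour exposure period. GI50 is the concentration that inhibits growth by half.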 Active and inactive are the calls of the source. No stated cut-off is given here; in the data, active = GI50 up to about 1.1 µM and inactive = higher.
# Columns and labels:
# Test in all cases: NCI tumour cell line growth inhibition, 48 h
# [1] = system: 786-0
# [2] = system: ACHN
# [3] = system: CAKI-1
# [4] = system: CCRF-CEM
# [5] = system: COLO 205
# [6] = system: HCT-15
# [7] = system: HOP-62
# [8] = system: HT-29
# [9] = system: Hs-578T
# [10] = system: IGROV-1
# [11] = system: MDA-MB-231
# [12] = system: Malme-3M
# [13] = system: NCI-H23
# [14] = system: NCI-H522
# [15] = system: SF-539
# [16] = system: SK-MEL-5
# [17] = system: SNB-19
# [18] = system: T47D
# [19] = system: TK-10
# [20] = system: SR
SMILES,GI50 [1],GI50 [2],GI50 [3],GI50 [4],GI50 [5],GI50 [6] [µM],GI50 [7],GI50 [8],GI50 [9],GI50 [10],GI50 [11],GI50 [12],GI50 [13],GI50 [14],GI50 [15],GI50 [16],GI50 [17],GI50 [18],GI50 [19],GI50 [20]
O=C1CCCc2c1c1c(n2Cc2ccccc2)-c2ccccc2C1=O,21.6 µM (inactive),16 µM (inactive),21.1 µM (inactive),31 µM (inactive),17.9 µM (inactive),15,25.5 µM (inactive),31.1 µM (inactive),28.7 µM (inactive),18.9 µM (inactive),15.4 µM (inactive),15.3 µM (inactive),14.9 µM (inactive),12.3 µM (inactive),21.1 µM (inactive),18.7 µM (inactive),15.4 µM (inactive),5.93 µM (inactive),10.5 µM (inactive),–
COc1ccc2c(c1)CCc1c-2n(CCN2CCCCC2)c2ccc(OC)cc12,> 100 µM (inactive),> 100 µM (inactive),> 100 µM (inactive),> 100 µM (inactive),> 100 µM (inactive),> 100,> 100 µM (inactive),9.12 µM (inactive),> 100 µM (inactive),> 100 µM (inactive),> 100 µM (inactive),> 100 µM (inactive),> 100 µM (inactive),61.5 µM (inactive),–,> 100 µM (inactive),> 100 µM (inactive),> 100 µM (inactive),> 100 µM (inactive),> 100 µM (inactive)
NC1=CN(Cc2ccccc2)C2=N/C(=C\c3ccco3)C(=O)N12,> 100 µM (inactive),> 100 µM (inactive),> 100 µM (inactive),> 100 µM (inactive),> 100 µM (inactive),> 100,> 100 µM (inactive),> 100 µM (inactive),> 100 µM (inactive),> 100 µM (inactive),> 100 µM (inactive),> 100 µM (inactive),> 100 µM (inactive),> 100 µM (inactive),> 100 µM (inactive),> 100 µM (inactive),> 100 µM (inactive),> 100 µM (inactive),> 100 µM (inactive),–
Cc1ccc2c(c1)-c1nc(N)c(C#N)c(-c3ccc(Cl)cc3)c1CCS2(=O)=O,40.6 µM (inactive),44.6 µM (inactive),38.5 µM (inactive),20.7 µM (inactive),24.7 µM (inactive),43.2,–,21.4 µM (inactive),43 µM (inactive),43.1 µM (inactive),27.1 µM (inactive),44.6 µM (inactive),39.4 µM (inactive),29.8 µM (inactive),–,18.2 µM (inactive),50.6 µM (inactive),33.2 µM (inactive),66.4 µM (inactive),24.5 µM (inactive)
Cc1c2c(c(C)c3c[n+](C)ccc13)Oc1ccccc1O2,6.62 µM (inactive),34.9 µM (inactive),> 67.5 µM (inactive),3.87 µM (inactive),6.34 µM (inactive),> 62.2,8.89 µM (inactive),20 µM (inactive),3.13 µM (inactive),13.9 µM (inactive),24.6 µM (inactive),2.56 µM (inactive),6.9 µM (inactive),4.42 µM (inactive),3.78 µM (inactive),4.32 µM (inactive),1.74 µM (inactive),2.57 µM (inactive),50.9 µM (inactive),–
COC(=O)c1sc(=S)sc1SCc1ccc(CSc2sc(=S)sc2C(=O)OC)cc1,> 100 µM (inactive),> 100 µM (inactive),> 100 µM (inactive),> 100 µM (inactive),> 100 µM (inactive),> 100,> 100 µM (inactive),> 100 µM (inactive),> 100 µM (inactive),> 100 µM (inactive),> 100 µM (inactive),> 100 µM (inactive),> 100 µM (inactive),> 100 µM (inactive),–,> 100 µM (inactive),> 100 µM (inactive),> 100 µM (inactive),> 100 µM (inactive),–
CC1CNC(c2ccc(CN3CCC(CCCC4CCN(Cc5ccc(C6=NC(C)CN6)cc5)CC4)CC3)cc2)=N1 (centres undefined),> 100 µM (inactive),> 100 µM (inactive),> 100 µM (inactive),19.5 µM (inactive),17.6 µM (inactive),> 100,32.2 µM (inactive),30.9 µM (inactive),> 100 µM (inactive),> 100 µM (inactive),21.2 µM (inactive),> 100 µM (inactive),> 100 µM (inactive),23.5 µM (inactive),29.6 µM (inactive),> 100 µM (inactive),24.5 µM (inactive),50 µM (inactive),75.3 µM (inactive),–
CC(C)(C)C1=C(Br)C(O)(C(C)(C)C)OP1(=O)c1ccccc1 (centres undefined),> 100 µM (inactive),> 100 µM (inactive),> 100 µM (inactive),> 100 µM (inactive),> 100 µM (inactive),> 100,> 100 µM (inactive),> 100 µM (inactive),> 100 µM (inactive),> 100 µM (inactive),> 100 µM (inactive),> 100 µM (inactive),> 100 µM (inactive),> 100 µM (inactive),> 100 µM (inactive),> 100 µM (inactive),> 100 µM (inactive),> 100 µM (inactive),> 100 µM (inactive),–
Cc1cc(O)c(C(c2ccncc2)c2c(O)cc(C)[nH]c2=O)c(=O)[nH]1,> 100 µM (inactive),> 100 µM (inactive),5.12 µM (inactive),> 100 µM (inactive),> 100 µM (inactive),> 100,> 100 µM (inactive),> 100 µM (inactive),> 100 µM (inactive),> 100 µM (inactive),> 100 µM (inactive),> 100 µM (inactive),> 100 µM (inactive),> 100 µM (inactive),–,> 100 µM (inactive),> 100 µM (inactive),> 100 µM (inactive),> 100 µM (inactive),> 100 µM (inactive)
CCOC(=O)c1c(NC(=O)c2ccccc2)sc2c1CCC2,> 100 µM (inactive),> 100 µM (inactive),> 100 µM (inactive),> 100 µM (inactive),> 100 µM (inactive),> 100,> 100 µM (inactive),> 100 µM (inactive),> 100 µM (inactive),> 100 µM (inactive),> 100 µM (inactive),–,> 100 µM (inactive),–,> 100 µM (inactive),> 100 µM (inactive),> 100 µM (inactive),> 100 µM (inactive),> 100 µM (inactive),> 100 µM (inactive)
Cc1ccc(-c2cc(-c3ccc(Cl)cc3)nc(/N=C3\C(=O)N(CN(C)C)c4ccccc43)n2)cc1,54.6 µM (inactive),64.1 µM (inactive),87.9 µM (inactive),14.9 µM (inactive),77.8 µM (inactive),41.1,81.5 µM (inactive),46.1 µM (inactive),54.8 µM (inactive),53.5 µM (inactive),> 100 µM (inactive),> 100 µM (inactive),33.6 µM (inactive),20.8 µM (inactive),> 100 µM (inactive),48.4 µM (inactive),> 100 µM (inactive),28.8 µM (inactive),85.3 µM (inactive),–
O=C(N/N=C(COc1ccccc1)\N=C\c1cccnc1)c1ccncc1,> 100 µM (inactive),> 100 µM (inactive),> 100 µM (inactive),> 100 µM (inactive),> 100 µM (inactive),> 100,59.6 µM (inactive),> 100 µM (inactive),> 100 µM (inactive),> 100 µM (inactive),> 100 µM (inactive),> 100 µM (inactive),> 100 µM (inactive),> 100 µM (inactive),> 100 µM (inactive),–,> 100 µM (inactive),> 100 µM (inactive),> 100 µM (inactive),–
CC(=O)NC1C(OCc2ccccc2)OC(CO)C(O)C1OC(C)C(=O)NC(C(=O)NC(CCC(=O)NCCCC(=O)Nc1ccc2c(c1)CN1C(=O)c3ccccc3C1=N2)C(N)=O)C(C)C (centres undefined),> 100 µM (inactive),> 100 µM (inactive),> 100 µM (inactive),> 100 µM (inactive),> 100 µM (inactive),> 100,> 100 µM (inactive),> 100 µM (inactive),> 100 µM (inactive),> 100 µM (inactive),> 100 µM (inactive),> 100 µM (inactive),> 100 µM (inactive),–,> 100 µM (inactive),> 100 µM (inactive),> 100 µM (inactive),> 100 µM (inactive),> 100 µM (inactive),> 100 µM (inactive)
C[C@@H]1C[C@H]2[C@@H]3CCC4=CC(=O)C=C[C@]4(C)[C@@]3(Cl)[C@@H](Cl)C[C@]2(C)[C@@]1(O)C(=O)COP(=O)(O)O,49.3 µM (inactive),> 100 µM (inactive),> 100 µM (inactive),–,> 100 µM (inactive),> 100,> 100 µM (inactive),> 100 µM (inactive),> 100 µM (inactive),> 100 µM (inactive),> 100 µM (inactive),> 100 µM (inactive),> 100 µM (inactive),> 100 µM (inactive),–,> 100 µM (inactive),> 100 µM (inactive),> 100 µM (inactive),> 100 µM (inactive),11.4 µM (inactive)
CN(C)Cc1cc(C(=O)/C=C/c2ccc([N+](=O)[O-])cc2)cc(CN(C)C)c1O,2.31 µM (inactive),3.33 µM (inactive),–,3.3 µM (inactive),1.99 µM (inactive),10.1,3.72 µM (inactive),9.04 µM (inactive),18.8 µM (inactive),12.2 µM (inactive),14.9 µM (inactive),–,18.3 µM (inactive),4.74 µM (inactive),18.5 µM (inactive),11.3 µM (inactive),83.4 µM (inactive),13.4 µM (inactive),16 µM (inactive),4.12 µM (inactive)
